Results taken from patent US20260103726A1, “CONTROL SYSTEM FOR INDUCING TRANSGENE EXPRESSION BY MEANS OF D-2-HG, AND CONSTRUCTION METHOD THEREFOR AND USES THEREOF” (priority 2023, published 2026).

Columns and labels:
HEK293FT cells = assay: HGind-H composed of two plasmids transfected into HEK293FT cells, D2eGFP fluorescence intensity after D-2-HG addition; type: cell-based; details: ratio 0.4
Protocol: (3) The plasmid was transfected into HEK293FT cells with lipofectamine 3000; a transfection plasmid combination 1 was pCDNA3.1(+)-DhdR-KRAB and pCDNA3.1(+)-DhdO10-D2eGFP or a plasmid combination 2 was pCDNA3.1(+)-KRAB-DhdR and pCDNA3.1(+)-DhdO10-D2eGFP; 3*105/well of cells were seeded in a 12-well plate, pcDNA3.1(+)-DhdO10-D2eGFP was added at lug/well, and the ratio of the recombinant transcriptional repressor plasmid to PcDNA3.1(+)-DhdO10-D2eGFP was 0:1, 1:1, 3:1.
(4) On the next day, D-2-HG was added at concentrations of 0 mM, 1 mM, 5 mM, and 10 mM; 64 h after transfection, a fluorescence microscope was used to take pictures, the supernatant was aspirated, a fluorescence microplate reader measured fluorescence intensities, and results were shown in FIG. 2.
(1) pCDNA3.1(+)-DhdR-KRAB and pCDNA3.1(+)-DhdO10-D2eGFP were selected, and then transfected using liposomes as above; the ratio of the two plasmids was set to 0, 0.1, 0.3, 0.4, 0.5, 0.75, 1.
(2) On the next day, D-2-HG was added at concentrations of 0 mM and 5 mM; and 64 h after transfection, a fluorescence microscopy was used to take pictures, the supernatant was aspirated, and a fluorescence microplate reader measured a fluorescence intensity. […]
(2) On the next day, D-2-HG was added at concentrations of 0, 0.5, 1, 5, 10, and 20 mM; and a fluorescence microplate reader measured a fluorescence intensity.

HT1080-DHDO14 tumor = assay: HGind-H control of suicide gene in animals, HT1080 vs HT1080-DHDO14 tumors with GCV; type: in vivo, Balb/c nude crlj; details: GCV 50 mg/kg per day i.p.
Protocol: (1) 18 Balb/c nude crlj which are male and 5 weeks old were purchased. HT1080 and HT-1080-DHDO14 cells were resuspended with PBS and injected at 1.5×10^6 cells/side*mouse (volume: 100 μl), where HT1080 was injected into the left backs of the mice and HT1080-DHDO14 was injected into the right backs of the mice.
(2) The mice were divided into two groups, the control group (n=8) was injected with normal saline, and the experimental group (n=10) was injected with ganciclovir (GCV).
(3) From the 5th to the 12th day of tumor model construction, each mouse in the control group was intraperitoneally injected with normal saline at 100 μl/day, and each mouse in the experimental group was intraperitoneally injected with GCV at 50 mg/kg per day. Starting from the 8th day, the long and short diameters of tumors of the mice were measured every day.
(4) The mice were killed on the 14th day and the tumors of the mice were weighed.

Compound | fluorescence intensity (D2eGFP expression) (HEK293FT cells; 0.5 mM D-2-HG vs 0 mM group, pCDNA3.1(+)-DhdR-KRAB and DhdO7-D2eGFP) | fluorescence intensity (D2eGFP expression), dose response (HEK293FT cells; D-2-HG 0, 0.5, 1, 5, 10, 20 mM) | size of HT1080-DHDO14 tumor vs HT1080 tumor on the left side (HT1080-DHDO14 tumor; day 5 to 12) | volume of the HT1080-DHDO14 tumor vs the other three groups (HT1080-DHDO14 tumor; later stage of measurement) | weight of the HT1080-DHDO14 tumor vs the other 3 groups (HT1080-DHDO14 tumor; mice killed on the 14th day)
O=C(O)CC[C@@H](O)C(=O)O [D-2-HG, D-2-hydroxyglutarate] | significant difference | as the concentration increases, the fluorescence intensity becomes larger and larger |  |  | 
Nc1nc(O)c2ncn(COC(CO)CO)c2n1 [GCV, ganciclovir] |  |  | significantly smaller | significantly less | significantly less
